pIC50: −log10 of the molar value. ≈ marks a conversion by molar mass, not a printed value.
Experiments:
proteinase = assay: Proteinase inhibitory activity; type: biochemical
Description: (§1) The anti-inflammatory activity of vasicine was investigated with lipooxygenase (LOX) inhibition assay ([26]), bovine serum albumin (BSA) method ([27]), egg albumin method ([28], [29]), and protein inhibitory action ([30]).

[1] = DPPH radical scavenging activity; details: for DPPH % inhibition: at 100 μg/ml
Procedure: (§2) The anti-oxidant activity of vasicine was evaluated with ABTS [2,2′-azino-bis (3-ethylbenzothiazoline-6-sulfonic acid)] activity ([20]), ferric reducing power (FRAP) assay, DPPH radical scavenging activity, hydroxyl radical scavenging activity ([21]–[24]), and hydrogen peroxide assay ([25]).

[2] = Hydroxyl radical scavenging assay; details: for Hydroxyl radical scavenging % inhibition: range, up to 100 μg/ml
Procedure: as §2

Bacillus badius = assay: Antibacterial colony forming units (CFU) assay; type: cell-based; details: increasing concentration of purified vasicine
Procedure: (§3) Antibacterial assay was carried outby colony forming units (CFU) assay using anaerobic and facultative oral bacteria ([17]). Two different bacterial strains (Escherichia coli and Bacillus badius) were collected from NCCS, Pune. […] The broth were kept in incubator at 37°C for 24 h. Two strains of Bacteria were grown in MH broth to an OD600nm of 0.5. 2 μLaliquot of the bacteria and 5 ml of fresh MH broth (contains various concentration of vasicine) was added ([19]). The log10 reduction in CFU/ml was determined.

Escherichia coli = assay: Antibacterial colony forming units (CFU) assay; type: cell-based; details: E. coli; increasing concentration of purified vasicine
Procedure: as §3

α-amylase = α-amylase inhibition assay; type: biochemical
Procedure: (§4) The antidiabetic activity of vasicine was evaluated with in vitro enzymatic assays using α-amylase and α-glucosidase ([31]–[36]). The non-enzymatic glycosylation of hemoglobin assay was also carried out ([37]).

egg albumin = molecular target: T1, egg albumin (Gallus gallus, UniProt P01012); assay: Egg albumin method (albumin denaturation); type: biochemical; details: for Inhibition of albumin denaturation: concentration range 10 to 100 μg/ml
T1 sequence (P01012 1-386): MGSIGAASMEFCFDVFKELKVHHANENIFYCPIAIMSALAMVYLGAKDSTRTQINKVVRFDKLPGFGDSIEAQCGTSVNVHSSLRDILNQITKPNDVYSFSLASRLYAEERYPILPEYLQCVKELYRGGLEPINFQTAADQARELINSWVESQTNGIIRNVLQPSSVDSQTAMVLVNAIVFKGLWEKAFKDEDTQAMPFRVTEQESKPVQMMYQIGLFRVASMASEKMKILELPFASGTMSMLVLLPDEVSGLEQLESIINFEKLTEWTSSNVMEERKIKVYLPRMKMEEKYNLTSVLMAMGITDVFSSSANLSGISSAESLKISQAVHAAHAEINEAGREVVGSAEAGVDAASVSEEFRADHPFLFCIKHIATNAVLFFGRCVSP
Description: as §1

hemoglobin = hemoglobin (Homo sapiens, UniProt P68871+P69905); assay: Non-enzymatic glycosylation of hemoglobin assay; type: biochemical; details: incubation of hemoglobin with glucose for 72 h; in comparison to the standard drug
Procedure: as §4

[3] = Ferric reducing antioxidant power (FRAP) assay
Procedure: as §2

Hydrogen peroxide assay = assay: Hydrogen peroxide assay
Procedure: as §2

lung carcinoma (A545) = assay: Anticancer activity, direct microscopic observation and MTT assay; type: cell-based
Procedure: (§5) The anticancer activity of vasicine for the potential treatment of lung carcinoma (A545) was evaluated in a multi-step process. Cytotoxicity of vasicine was investigated by cytotoxicity evaluation (human fibroblast cell line, C0135C) ([39], [40]), direct microscopic observation ([41]), and MTT assay ([42]).

[4] = system: human fibroblast cell line, C0135C; assay: Cytotoxicity evaluation, MTT assay; type: cell-based; details: cell viability
Procedure: as §5

lipooxygenase (LOX) = assay: Lipooxygenase inhibition assay; type: biochemical
Description: as §1

[5] = molecular target: bovine serum albumin (BSA) (Bos taurus, UniProt P02769); assay: BSA method (albumin denaturation); type: biochemical
Description: as §1

ABTS scavenging activity = assay: ABTS scavenging activity
Procedure: as §2

[6] = system: serum alkaline phosphatase; set-up: method as in Srinivasarao et al. ([60]); details: Swiss albino mice treated with vasicine; ref Srinivasarao et al. ([60]); cited from earlier work

Chain of bovine serum albumin (BSA) (P02769 25-607): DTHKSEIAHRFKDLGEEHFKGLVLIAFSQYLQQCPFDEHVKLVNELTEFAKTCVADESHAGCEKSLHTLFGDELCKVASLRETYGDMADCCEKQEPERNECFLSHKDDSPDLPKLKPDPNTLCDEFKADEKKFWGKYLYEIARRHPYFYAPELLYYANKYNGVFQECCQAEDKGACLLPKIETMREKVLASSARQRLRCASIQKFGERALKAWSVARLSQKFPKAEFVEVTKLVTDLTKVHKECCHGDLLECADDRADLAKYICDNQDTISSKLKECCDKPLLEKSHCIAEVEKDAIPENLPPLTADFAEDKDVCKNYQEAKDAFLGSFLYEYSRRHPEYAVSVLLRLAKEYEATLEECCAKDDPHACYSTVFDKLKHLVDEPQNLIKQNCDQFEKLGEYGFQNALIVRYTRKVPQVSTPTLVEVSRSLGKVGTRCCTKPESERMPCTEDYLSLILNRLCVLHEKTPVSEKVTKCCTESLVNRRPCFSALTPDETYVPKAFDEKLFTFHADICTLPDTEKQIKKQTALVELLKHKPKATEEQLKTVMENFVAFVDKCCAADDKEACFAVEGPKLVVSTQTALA
Chain of hemoglobin (P69905 2-142 limits assumed): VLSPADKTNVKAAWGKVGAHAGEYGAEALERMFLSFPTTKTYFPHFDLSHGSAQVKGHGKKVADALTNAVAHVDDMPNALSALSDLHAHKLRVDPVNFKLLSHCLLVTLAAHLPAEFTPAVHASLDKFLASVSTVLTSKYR
Chain of hemoglobin (P68871 2-147 limits assumed): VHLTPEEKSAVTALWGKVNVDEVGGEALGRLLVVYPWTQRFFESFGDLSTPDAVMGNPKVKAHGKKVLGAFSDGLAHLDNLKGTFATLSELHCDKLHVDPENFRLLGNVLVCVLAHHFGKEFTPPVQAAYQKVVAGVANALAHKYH

For `CC(=O)Oc1ccccc1C(=O)O` [aspirin, reference compound], the Proteinase % inhibition (proteinase; standard) was 79%.
For `O=C1O[C@H]([C@@H](O)CO)C(O)=C1O` [ascorbic acid, reference compound], the DPPH % inhibition [1] was 96% and the “Hydroxyl radical scavenging % inhibition” value [2] was 15–86%.
For `O[C@H]1CCN2Cc3ccccc3N=C12` [vasicine], the “DPPH radical scavenging IC50” value [1] was 18.2 µg/mL, the DPPH % inhibition [1] was 81% and the “Number of colonies (CFU assay)” value (Bacillus badius) was “number of colonies reduced”. For the same compound, the “Number of colonies (CFU assay)” value (Escherichia coli) was “number of colonies reduced”, the “α-amylase inhibition IC50” value (α-amylase) was 47.6 µg/mL and the pIC50 (egg albumin) was 3.55. The “Inhibition of albumin denaturation” value (egg albumin) was 81%, the “Inhibition of hemoglobin glycosylation” value (hemoglobin) was “substantially inhibits hemoglobin glycosylation” and the “Proteinase inhibitory IC50” value (proteinase) was 76 µg/mL. The “FRAP IC50” value [3] was 15 µg/mL, the FRAP % inhibition ([3]; at 100 μg/ml) was 62% and the “Hydrogen peroxide assay IC50” value (Hydrogen peroxide assay) was 27.8 µg/mL. For the same compound, the “Inhibitory activity against hydrogen peroxide” value (Hydrogen peroxide assay; 10–100 μg) was 9–59%, the “Hydroxyl radical scavenging IC50” value [2] was 22 µg/mL and the “Hydroxyl radical scavenging % inhibition” value [2] was 12–69%. The inhibition at 100 µg/mL (lung carcinoma (A545); A545, read-out: Growth inhibition of lung cancer cell line) was 30.1%, the “Inhibition of cell growth, lung cancer cell line” value (lung carcinoma (A545); discussion statement, concentration not given) was “More than 50%” and the IC50 [4] was 82.5 µg/mL (≈ 438 µM). For the same compound, the “Lipooxygenase IC50” value (lipooxygenase (LOX)) was 76 µg/mL, the “Lipooxygenase maximum percentage inhibition” value (lipooxygenase (LOX); maximum) was 83% and the pIC50 [5] was 3.56. The “BSA method maximum percentage of inhibition” value ([5]; maximum) was 82%, the “ABTS scavenging IC50” value (ABTS scavenging activity) was 11.5 µg/mL and the Serum alkaline phosphatase [6] was “increase in serum alkaline phosphatase”.
In the case of `O=C(O)Cc1ccccc1Nc1c(Cl)cccc1Cl` [diclofenac sodium, reference compound], the “Inhibition of albumin denaturation” value (egg albumin) was 89% and the Lipooxygenase % inhibition (lipooxygenase (LOX); at 100 μg/ml) was 82%.

Source: article PMC10099809, “Valorization of Adhatoda vasica leaves: Extraction, in vitro analyses and in silico approaches” (Frontiers in Nutrition, 2023)
